The text below walks through data of patent US20130184272A1, “DIABETES THERAPEUTIC AGENT” (TAKEDA PHARMACEUTICAL COMPANY LIMITED, priority 2010, published 2013).

In one test the test system is C2C12 cell. As to the kind of experiment: Sugar metabolism promoting activity in muscle cell (lactic acid production). Type of test: cell-based, Mouse. Conditions: Mus musculus, 48 h; compound 1 μM, 2 days, C2C12 myotubes; without drug = 100%; read-out: lactic acid production promoting action (%). The method, then: • (1) In the same manner as in Example 1, C2C12 cell was cultured in a growth medium. After reaching subconfluence of not less than 90%, the medium was exchanged with a differentiation medium and the cells were cultured for about 7 days while exchanging the medium every 2 or 3 days until the cells differentiated to form a myotube. • (2) After confirmation of myotube formation under a microscope, the test compound (1 μM) was added to a differentiation medium and cultured for 2 days. The cells were washed with Krebs-Ringer HEPES phosphate buffer (10 mM HEPES, pH 7.4, 131 mM NaCl, 4.7 mM KCl, 2.5 mM CaCl2—2H2O, 1.2 mM MgSO4—7H2O, 1.2 mM KH2PO4), the medium was exchanged with Krebs-Ringer HEPES phosphate buffer added with 5 mM glucose, 0.2% fatty acid-free bovine serum albumin, and cultured at 37° C. for 4 hr. • (3) The lactic acid concentration of the culture supernatant was measured using Detarminer LA kit (Kyowa Medex Co., Ltd.).
The numerical values in Table 2 show the concentration of the compound addition group with the concentration of lactic acid without addition of a drug as 100%.

The test system of test [1] is C2C12 cells. Put plainly: Sugar uptake promoting activity in muscle cell (2DG uptake). It is filed as cell-based, Mouse. Conditions: for 2DG uptake (%): control group (DMSO) = 100%. The procedure:
• (1) In the same manner as in Example 1, C2C12 cells were cultured in a growth medium to not less than 90% confluence. • (2) The medium was exchanged with a differentiation medium, and the cells were cultured until observation of myotube formation under a microscope. • (3) The compounds of Reference Example 1 and Reference Example 7 were added, and the cells were cultured overnight. • (4) The cells were washed with krebs-ringer HEPES phosphate buffer added with 1% bovine serum albumin, cultured for 30 min in this buffer, 2-deoxyglucose (2DG) (0.1 mM, 0.8 μCi/250 μL) was added and the cells were cultured at 37° C. for 75 min. • (5) The cells were washed 4 times with PBS, MicroScint-20 (125 μL/well, PerkinElmer) was added and the radioactivity was measured by a scintillation counter. DMSO (dimethyl sulfoxide) alone was added to the control group. The numerical values of 2DG uptake in Table 10 are relative values to the control group as 100%.
The data in Table 10 show mean±standard deviation at n=6 (n is the number of samples).

The subject of test [2] is succinic acid dehydrogenase activity of mitochondria. As to the kind of experiment: Succinic acid dehydrogenase activity in muscle cell. Type of test: cell-based, Mouse. To be noted: for succinic acid dehydrogenase activity: two days, control group 100. The procedure:
(§1) • (1) In the same manner as in Example 1, C2C12 cells were cultured in a growth medium to not less than 90% confluence. • (2) The medium was exchanged with a differentiation medium, and the cells were cultured until observation of myotube formation under a microscope. • (3) The compounds of Reference Example 1 and Reference Example 7 were added, and the cells were cultured for two days. • (4) ATP content was measured using Cell Titer-Glo™ Luminescence cell viable assay (Promega) and succinic acid dehydrogenase activity of mitochondria was measured using Cell Counting Kit-8 (Dojin). The data of Table 17 show mean±standard deviation at n=3-4 (n is the number of samples).

For test [3], the system named is C2C12 cells. As to the kind of experiment: ATP content in muscle cell. Type of test: cell-based, Mouse. To be noted: for ATP content: two days, control group 100. The method, then:
as §1

In a further test the test system is C/EBPβ. As to the kind of experiment: Adipocyte-related gene expression level: C/EBPβ. Type of test: cell-based. The method, then:
In the same manner as in Example 10, the cells were cultured, and total RNA was extracted using Rneasy96 kit (Qiagen) from the cell immediately before and 6 days after addition of […] of the compound of Reference Example 1. cDNA was prepared from the total RNA using TaqMan reverse transcription reagent (Applied Biosystems), quantitative PCR was performed by ABI PRISM7000 or 7000 using TaqMan Universal PCR master mix (Applied Biosystems) and commercially available primers, and the expression level of each gene was determined. The commercially available primers used were as follows. • C/EBPα (Mm00514283_s1, TaqMan Gene Expression Assays, Applied Biosystems) • C/EBPβ (Mm00843434_s1, TaqMan Gene Expression Assays, Applied Biosystems) • KLF15 (Mm00517792_m1, TaqMan Gene Expression Assays, Applied Biosystems) • PPARγ (Mm00440945_m1, TaqMan Gene Expression Assays, Applied Biosystems)
The expression level was amended by the amount of 36B4 (Takeda Pharmaceutical Company Limited) in the same manner as in Example 3, and the relative values to the value immediately before addition of each gene compound as 1 are shown in Table 16. The data in Table 16 show mean±standard deviation at n=3-4 (n is the number of samples).

Test [4] has as its system phosphorylated acetyl-CoA carboxylase (ACC). Put plainly: Phosphorylated acetyl-CoA carboxylase (ACC) amount in muscle cell. It is filed as cell-based, Mouse. To be noted: for Phospho-ACC amount (%): 3 days, amended with total ACC, no compound = 100%. The method, then: • (1) In the same manner as in Example 1, C2C12 cells were cultured in a growth medium. After reaching subconfluence of not less than 90%, the medium was exchanged with a differentiation medium and the cells were cultured for about 4 days while exchanging the medium every 2 or 3 days until the cells differentiated to form a myotube. • (2) After confirmation of myotube formation under a microscope, the test compound (0.1-10 nM) was added to a differentiation medium and cultured for 3 days. Thereafter, the cells were fixed with 4% formaldehyde phosphate buffer for 10 min, and washed 4 times with PBS containing 0.1% TritonX-100. • (3) Odyssey Blocking Buffer (LI-COR Biosciences) was added, and the mixture was incubated at room temperature for 1 hr. Thereafter, primary antibody (ACCα (T-18) (Santacruz) and Phospho-ACC (Ser79) (Upstate)) were added, and the mixture was incubated at 4° C. overnight. • (4) The cells were washed 4 times with PBS containing 0.1% Tween20, secondary antibody (Donkey anti-goat IRDye 800CW (LI-COR Biosciences) and Donkey anti-mouse IRDye 680 (LI-COR Biosciences)) were added and the mixture was incubated under shading at room temperature for 1 hr. • (5) The cells were washed 4 times with PBS containing 0.1% Tween20, PBS was added, and the phospho-ACC amount and total ACC amount were measured using Odyssey2.1 (LI-COR Biosciences).
The numerical values in Table 20 were obtained by amending the phospho-ACC amount with total ACC amount and are shown based on the absence of addition of the compound as 100%. n is the number of samples.

As to `Cn1ncc2c1-c1c(Oc3cccnc3)sc(C(N)=O)c1CC2` [Ref. Ex. 7, 1-methyl-8-(pyridin-3-yloxy)-4,5-dihydro-1H-thieno[3,4-g]indazole-6-carboxamide], the activity at 1 µM with C2C12 cell is 254%. The “sugar uptake of C2C12 cell differentiated into muscle cell (in words)” value in the test with C2C12 cells [1] is on record as “promoted”. Further, the “2DG uptake (%)” value is 69% in the test with C2C12 cells [1] (compound 0.1 nM overnight), 100% with C2C12 cells [1] (compound 1 nM overnight), 137% in the test on C2C12 cells [1] (compound 10 nM overnight) and 181% with C2C12 cells [1] (compound 100 nM overnight). For the same compound, in test [2], the “succinic acid dehydrogenase activity (in words)” value is recorded as “increased”. For the same compound, the results for the “succinic acid dehydrogenase activity” value in test [2] (compound 1 nM), in test [2] (compound 10 nM) and in test [2] (compound 100 nM) were 111 ± 3, 120 ± 4 and 131 ± 7, respectively. Besides, the “ATP content of muscle cells (in words)” value in the test on C2C12 cells [3] was “did not decrease”. Further, the ATP content was 106 ± 2 with C2C12 cells [3] (compound 1 nM), 111 ± 3 in the test with C2C12 cells [3] (compound 10 nM) and 103 ± 4 with C2C12 cells [3] (compound 100 nM).

With `Cc1ncccc1Oc1sc(C(N)=O)c2c1-c1c(cnn1C)CC2` [Ref. Ex. 1, 1-methyl-8-[(2-methylpyridin-3-yl)oxy]-4,5-dihydro-1H-thieno[3,4-g]indazole-6-carboxamide], the activity at 1 µM in the test on C2C12 cell amounted to 247%. Further, in the test with C2C12 cells [1], the “sugar uptake of C2C12 cell differentiated into muscle cell (in words)” value is “promoted”. In addition, the “2DG uptake (%)” value is given as 89% in the test with C2C12 cells [1] (compound 0.1 nM overnight), 150% with C2C12 cells [1] (compound 1 nM overnight), 166% in the test with C2C12 cells [1] (compound 10 nM overnight) and 187% with C2C12 cells [1] (compound 100 nM overnight). Also, in the test on C/EBPβ (10 μm [sic] of compound, 6 days after addition, value immediately before addition = 1), the “C/EBPβ expression level (amended by 36B4)” value amounted to 1.3 ± 0.5. Moreover, the “expression level of C/EBPβ (in words)” value in the test on C/EBPβ (C3H10T1/2 cell) is “decreased”. In addition, the “Phospho-ACC amount (%)” value amounted to 112% in test [4] (compound 0.1 nM); 125% in test [4] (compound 0.3 nM); 136% in test [4] (compound 1 nM); 167% in test [4] (compound 3 nM); 163% in test [4] (compound 10 nM). Also, in test [4] (differentiated C2C12 muscle cell), the “phospho-ACC amount (in words)” value was “increased”. The “succinic acid dehydrogenase activity (in words)” value in test [2] was “increased”. Also, the results for the “succinic acid dehydrogenase activity” value in test [2] (compound 0.01 nM), in test [2] (compound 0.1 nM) and in test [2] (compound 1 nM) were 98 ± 10, 113 ± 5 and 124 ± 3, respectively. Moreover, in the test with C2C12 cells [3], the “ATP content of muscle cells (in words)” value is “did not decrease”. The ATP content is reported as 108 ± 1 with C2C12 cells [3] (compound 0.01 nM), 107 ± 0 in the test with C2C12 cells [3] (compound 0.1 nM) and 112 ± 1 in the test with C2C12 cells [3] (compound 1 nM).
